Measured values taken from patent US9051270B2, “Pyridone amides as modulators of sodium channels” (Vertex Pharmaceuticals Incorporated, priority 2013, dated 2015).

Assays:
[1] = Microsomal stability assay, rat liver microsomes (RLM); format: in vitro ADME; details: rat liver microsomes 0.5 mg/mL, 1 uM substrate, 2 mM NADPH, 37° C., referenced against time zero control
Method: (§1) Microsomal Stability Assay.
(§2) Compounds were incubated at 37° C. and shaken for 30 minutes in a phosphate buffered solution with either rat or human liver microsomes and the cofactor NADPH. A time zero control was similarly prepared, however with NADPH excluded. The final incubation concentrations were 1 uM substrate (0.2% DMSO), 0.5 mg/mL liver microsome, 2 mM NADPH, and 0.1 M phosphate. Reactions were quenched and proteins precipitated with the addition of 2 volume equivalents of ice cold acetonitrile containing an internal standard. Following a centrifugation step, aliquots from the quenched incubations were further diluted with 4 volume equivalents of a 50% aqueous methanol solution and then subjected to LC/MS/MS analysis for quantitation of parent compound. Microsome stability values were calculated as the percent of substrate remaining after 30 minutes referenced against the time zero control.
(§3) Microsomal stability in rat and human liver microsomes were determined for selected compounds of the present invention using the above assay. Table 4 provides the human liver microsomes (“HLM”) and rat liver microsomes (“RLM”) stability data as the percent of compound remaining after 30 minutes referenced against the time zero control.

[2] = molecular target: human Nav1.8 (Homo sapiens (Human), UniProt Q9Y5Y9); test: E-VIPR optical membrane potential assay with electrical stimulation; format: cell-based; details: HEK cells expressing human Nav1.8
human Nav1.8, sequence (Q9Y5Y9 whole entry): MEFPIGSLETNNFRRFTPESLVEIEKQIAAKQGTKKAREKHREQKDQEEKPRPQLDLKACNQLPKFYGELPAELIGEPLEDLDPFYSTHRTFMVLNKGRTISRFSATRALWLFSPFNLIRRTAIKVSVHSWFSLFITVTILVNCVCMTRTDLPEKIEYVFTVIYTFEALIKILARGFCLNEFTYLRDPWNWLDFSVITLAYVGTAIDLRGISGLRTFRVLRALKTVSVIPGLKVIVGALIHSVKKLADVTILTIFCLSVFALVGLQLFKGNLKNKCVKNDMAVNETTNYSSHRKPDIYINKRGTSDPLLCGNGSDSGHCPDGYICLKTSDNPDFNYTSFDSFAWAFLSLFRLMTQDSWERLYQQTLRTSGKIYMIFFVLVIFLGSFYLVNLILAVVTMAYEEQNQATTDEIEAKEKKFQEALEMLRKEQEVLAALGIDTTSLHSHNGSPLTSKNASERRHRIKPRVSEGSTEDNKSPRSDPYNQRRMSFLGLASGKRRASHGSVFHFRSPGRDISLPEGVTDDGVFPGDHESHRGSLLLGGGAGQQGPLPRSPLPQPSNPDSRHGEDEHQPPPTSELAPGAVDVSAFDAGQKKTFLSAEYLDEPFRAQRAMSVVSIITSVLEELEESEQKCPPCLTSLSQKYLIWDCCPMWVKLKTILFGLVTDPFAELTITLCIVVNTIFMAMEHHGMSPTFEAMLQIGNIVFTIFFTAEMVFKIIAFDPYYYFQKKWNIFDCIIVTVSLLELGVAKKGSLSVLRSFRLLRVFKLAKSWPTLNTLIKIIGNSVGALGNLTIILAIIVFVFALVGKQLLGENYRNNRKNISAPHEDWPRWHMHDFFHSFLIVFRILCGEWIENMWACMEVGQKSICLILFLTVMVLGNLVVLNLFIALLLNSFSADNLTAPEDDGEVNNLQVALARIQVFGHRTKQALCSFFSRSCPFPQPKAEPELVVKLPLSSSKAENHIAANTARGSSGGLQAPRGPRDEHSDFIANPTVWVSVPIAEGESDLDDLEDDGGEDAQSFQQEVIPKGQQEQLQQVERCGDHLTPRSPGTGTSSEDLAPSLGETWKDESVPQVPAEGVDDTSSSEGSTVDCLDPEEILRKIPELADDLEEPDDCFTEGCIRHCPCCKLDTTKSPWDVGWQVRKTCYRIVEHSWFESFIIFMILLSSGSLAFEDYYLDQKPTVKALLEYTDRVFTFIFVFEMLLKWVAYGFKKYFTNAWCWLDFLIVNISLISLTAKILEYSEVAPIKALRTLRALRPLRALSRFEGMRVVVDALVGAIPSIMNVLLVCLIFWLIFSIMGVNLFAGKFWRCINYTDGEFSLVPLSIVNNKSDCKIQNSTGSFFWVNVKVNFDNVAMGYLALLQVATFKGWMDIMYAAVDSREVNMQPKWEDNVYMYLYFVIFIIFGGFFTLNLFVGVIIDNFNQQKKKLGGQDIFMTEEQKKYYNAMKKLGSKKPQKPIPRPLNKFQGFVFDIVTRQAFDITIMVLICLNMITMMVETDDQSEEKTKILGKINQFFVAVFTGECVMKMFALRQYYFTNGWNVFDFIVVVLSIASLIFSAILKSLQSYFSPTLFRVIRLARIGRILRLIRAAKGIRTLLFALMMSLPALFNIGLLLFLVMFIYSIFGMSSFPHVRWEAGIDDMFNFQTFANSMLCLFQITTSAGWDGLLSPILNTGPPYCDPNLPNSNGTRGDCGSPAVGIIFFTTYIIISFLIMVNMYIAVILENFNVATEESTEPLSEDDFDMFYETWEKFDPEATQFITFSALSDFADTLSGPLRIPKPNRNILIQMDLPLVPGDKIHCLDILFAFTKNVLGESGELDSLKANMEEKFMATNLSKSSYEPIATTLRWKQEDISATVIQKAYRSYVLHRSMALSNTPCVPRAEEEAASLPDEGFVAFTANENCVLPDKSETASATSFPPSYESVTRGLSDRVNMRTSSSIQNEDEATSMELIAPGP

[3] = Microsomal stability assay, human liver microsomes (HLM); format: in vitro ADME; details: human liver microsomes 0.5 mg/mL, 1 uM substrate, 2 mM NADPH, 37° C., referenced against time zero control
Method: as §1, §2, §3

Row | Compound | RLM (% remaining @ 30 minutes) [1] [%] | IC50 [2] [nM] | HLM (% remaining @ 30 minutes) [3] [%]
1 | O=C(Nc1cc[nH]c(=O)c1)c1cc(C(F)(F)F)ccc1Oc1ccc(F)cc1 [Compound 2, 2-(4-fluorophenoxy)-N-(2-oxo-1,2-dihydropyridin-4-yl)-5-(trifluoromethyl)benzamide] | 104 | 54 | 100
2 | O=C(Nc1cc[nH]c(=O)c1)c1ccc(C(F)(F)F)cc1Oc1ccc(F)cc1F [Compound 7, 2-(2,4-difluorophenoxy)-N-(2-oxo-1,2-dihydropyridin-4-yl)-4-(trifluoromethyl)benzamide] | 99 | 50 | 97
3 | COCCOc1ccc(Oc2cc(C(F)(F)F)ccc2C(=O)Nc2cc[nH]c(=O)c2)cc1 [Compound 8, 2-(4-(2-methoxyethoxy)phenoxy)-N-(2-oxo-1,2-dihydropyridin-4-yl)-4-(trifluoromethyl)benzamide] | 86 | 330 | 90
4 | Cc1cc(F)ccc1Oc1cc(C(F)(F)F)ccc1C(=O)Nc1cc[nH]c(=O)c1 [Compound 10, 2-(4-fluoro-2-methylphenoxy)-N-(2-oxo-1,2-dihydropyridin-4-yl)-4-(trifluoromethyl)benzamide] | 82 | – | 93
5 | Cc1cc(F)ccc1Oc1cc(Cl)ccc1C(=O)Nc1cc[nH]c(=O)c1 [Compound 20, 4-chloro-2-(4-fluoro-2-methylphenoxy)-N-(2-oxo-1,2-dihydropyridin-4-yl)benzamide] | 88 | 30 | 104
6 | Cc1ccccc1Oc1ccc(C(F)(F)F)cc1C(=O)Nc1cc[nH]c(=O)c1 [Compound 28, N-(2-oxo-1,2-dihydropyridin-4-yl)-2-(o-tolyloxy)-5-(trifluoromethyl)benzamide] | 70 | 44 | 79
7 | O=C(Nc1cc[nH]c(=O)c1)c1cc(C(F)(F)F)ccc1Oc1ccc(F)cc1Cl [Compound 29, 2-(2-chloro-4-fluorophenoxy)-N-(2-oxo-1,2-dihydropyridin-4-yl)-5-(trifluoromethyl)benzamide] | 107 | 28 | 107
8 | COc1cc(F)ccc1Oc1ccc(C(F)(F)F)cc1C(=O)Nc1cc[nH]c(=O)c1 [Compound 30, 2-(4-fluoro-2-methoxyphenoxy)-N-(2-oxo-1,2-dihydropyridin-4-yl)-5-(trifluoromethyl)benzamide] | 78 | 11 | 76
9 | Cc1cc(F)ccc1Oc1ccc(C(F)(F)F)cc1C(=O)Nc1cc[nH]c(=O)c1 [Compound 31, 2-(4-fluoro-2-methylphenoxy)-N-(2-oxo-1,2-dihydropyridin-4-yl)-5-(trifluoromethyl)benzamide] | 91 | 17 | 92
10 | O=C(Nc1cc[nH]c(=O)c1)c1cc(OC(F)(F)F)ccc1Oc1ccc(F)cc1F [Compound 33, 2-(2,4-difluorophenoxy)-N-(2-oxo-1,2-dihydropyridin-4-yl)-5-(trifluoromethoxy)benzamide] | 110 | 95 | 100
11 | O=C(Nc1cc[nH]c(=O)c1)c1cc(OC(F)(F)F)ccc1Oc1ccc(F)cc1Cl [Compound 37, 2-(2-chloro-4-fluorophenoxy)-N-(2-oxo-1,2-dihydropyridin-4-yl)-5-(trifluoromethoxy)benzamide] | 97 | 51 | 100
12 | CCOc1ccc(Oc2ccc(C(F)(F)F)cc2C(=O)Nc2cc[nH]c(=O)c2)cc1 [Compound 44, 2-(4-ethoxyphenoxy)-N-(2-oxo-1,2-dihydropyridin-4-yl)-5-(trifluoromethyl)benzamide] | 84 | 20 | 93
13 | O=C(Nc1cc[nH]c(=O)c1)c1cc(Cl)ccc1Oc1ccc(F)cc1Cl [Compound 66, 5-chloro-2-(2-chloro-4-fluorophenoxy)-N-(2-oxo-1,2-dihydropyridin-4-yl)benzamide] | 106 | 37 | 100
14 | Cc1cc(F)ccc1Oc1ccc(Cl)cc1C(=O)Nc1cc[nH]c(=O)c1 [Compound 68, 5-chloro-2-(4-fluoro-2-methylphenoxy)-N-(2-oxo-1,2-dihydropyridin-4-yl)benzamide] | 72 | 30 | 98
15 | O=C(Nc1cc[nH]c(=O)c1)c1cc(C(F)(F)F)ccc1Oc1ccc(OC(F)(F)F)cc1 [Compound 72, N-(2-oxo-1,2-dihydropyridin-4-yl)-2-(4-(trifluoromethoxy)phenoxy)-5-(trifluoromethyl)benzamide] | 95.5 | 13 | 100
16 | O=C(Nc1cc[nH]c(=O)c1)c1cc(C(F)(F)F)ccc1Oc1ccccc1OC(F)(F)F [Compound 75, N-(2-oxo-1,2-dihydropyridin-4-yl)-2-(2-(trifluoromethoxy)phenoxy)-5-(trifluoromethyl)benzamide] | 95 | 51 | 90
17 | O=C(Nc1cc[nH]c(=O)c1)c1cc(C(F)(F)F)ccc1Oc1ccccc1OC(F)F [Compound 76, 2-(2-(difluoromethoxy)phenoxy)-N-(2-oxo-1,2-dihydropyridin-4-yl)-5-(trifluoromethyl)benzamide] | 93 | 54 | 97
18 | O=C(Nc1cc[nH]c(=O)c1)c1ccc(C(F)(F)F)cc1Oc1ccc(OC(F)(F)F)cc1 [Compound 79, N-(2-oxo-1,2-dihydropyridin-4-yl)-2-(4-(trifluoromethoxy)phenoxy)-4-(trifluoromethyl)benzamide] | 100 | 11 | 103
19 | O=C(Nc1cc[nH]c(=O)c1)c1ccc(C(F)(F)F)cc1Oc1ccc(OC(F)F)cc1 [Compound 82, 2-(4-(difluoromethoxy)phenoxy)-N-(2-oxo-1,2-dihydropyridin-4-yl)-4-(trifluoromethyl)benzamide] | 98 | 36 | 101
20 | O=C(Nc1cc[nH]c(=O)c1)c1ccc(C(F)(F)C(F)(F)F)cc1Oc1ccc(F)cc1 [Compound 88, 2-(4-fluorophenoxy)-N-(2-oxo-1,2-dihydropyridin-4-yl)-4-(perfluoroethyl)benzamide] | 102 | 12 | 100
21 | O=C(Nc1cc[nH]c(=O)c1)c1cc(C(F)(F)F)ccc1Oc1ccc(F)c(F)c1F [Compound 90, N-(2-oxo-1,2-dihydropyridin-4-yl)-5-(trifluoromethyl)-2-(2,3,4-trifluorophenoxy)benzamide] | 104 | 26 | 101
22 | O=C(Nc1cc[nH]c(=O)c1)c1cc(F)ccc1Oc1ccc(OC(F)(F)F)cc1 [Compound 101, 5-fluoro-N-(2-oxo-1,2-dihydropyridin-4-yl)-2-(4-(trifluoromethoxy)phenoxy)benzamide] | 89 | 120 | 97
23 | O=C(Nc1cc[nH]c(=O)c1)c1cc(F)c(Cl)cc1Oc1ccc(F)cc1Cl [Compound 109, 4-chloro-2-(2-chloro-4-fluorophenoxy)-5-fluoro-N-(2-oxo-1,2-dihydropyridin-4-yl)benzamide] | 100 | 19 | 103
24 | COc1cc(F)ccc1Oc1cc(C(F)(F)C(F)(F)F)ccc1C(=O)Nc1cc[nH]c(=O)c1 [Compound 111, 2-(4-fluoro-2-methoxyphenoxy)-N-(2-oxo-1,2-dihydropyridin-4-yl)-4-(perfluoroethyl)benzamide] | 90 | 3 | 91
